Test results published in PubChem BioAssay (NCI).
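Cultured in 96-well plates, cells were exposed to test compound for 48 hours across five concentrations. GI50 marks 50% less growth. The concentration for full growth arrest is given as TGI.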

Columns and labels:
Assay in all cases: NCI-60 cell line screen, 48 h
CCRF-CEM leukemia = system: CCRF-CEM leukemia
HS 578T breast = system: HS 578T breast
LOX IMVI melanoma = system: LOX IMVI melanoma
MDA-MB-231 breast = system: MDA-MB-231 breast
NCI-H23 lung = system: NCI-H23 lung
NCI/ADR-RES ovarian = system: NCI/ADR-RES ovarian
OVCAR-3 ovarian = system: OVCAR-3 ovarian
OVCAR-5 ovarian = system: OVCAR-5 ovarian
SF-295 CNS = system: SF-295 CNS
UACC-257 melanoma = system: UACC-257 melanoma

| SMILES | GI50 (CCRF-CEM leukemia) [µM] | TGI (CCRF-CEM leukemia) [µM] | GI50 (HS 578T breast) [µM] | TGI (HS 578T breast) [µM] | GI50 (LOX IMVI melanoma) [µM] | TGI (LOX IMVI melanoma) [µM] | GI50 (MDA-MB-231 breast) [µM] | TGI (MDA-MB-231 breast) [µM] | GI50 (NCI-H23 lung) [µM] | TGI (NCI-H23 lung) [µM] | GI50 (NCI/ADR-RES ovarian) [µM] | TGI (NCI/ADR-RES ovarian) [µM] | GI50 (OVCAR-3 ovarian) [µM] | TGI (OVCAR-3 ovarian) [µM] | GI50 (OVCAR-5 ovarian) [µM] | TGI (OVCAR-5 ovarian) [µM] | GI50 (SF-295 CNS) [µM] | TGI (SF-295 CNS) [µM] | GI50 (UACC-257 melanoma) [µM] | TGI (UACC-257 melanoma) [µM] |
| --- | --- | --- | --- | --- | --- | --- | --- | --- | --- | --- | --- | --- | --- | --- | --- | --- | --- | --- | --- | --- |
| c1cc(CN2CCCNCCNCCCNCC2)ccc1CN1CCCNCCNCCCNCC1 | > 100 | > 100 | > 100 | > 100 | > 100 | > 100 | > 100 | > 100 | > 100 | > 100 | > 100 | > 100 | > 100 | > 100 | > 100 | > 100 | > 100 | > 100 | > 100 | > 100 |
| C=C(C)[C@@H]1C/C=C(/CO)CC[C@H]2O[C@]2(C)CC/C=C(\C)CC1 | 12.5 | 34.8 | 18.2 | 38.7 | 15.4 | 30.3 | 10.7 | 29.7 | 20.7 | 66.9 | 29.9 | > 100 | 22.2 | 42.9 | 24.7 | > 100 | 11.6 | 24.5 | 22 | 43.6 |
| Nc1ncnc2c1c(-c1ccc(Oc3ccccc3)cc1)nn2C[C@H]1SSC[C@@H]1O | 0.2 | 6.28 | 2.81 | 10.6 | 0.257 | 1.79 | 0.934 | 7.84 | 0.83 | 21.4 | 2.73 | 37.1 | 0.251 | 0.684 | 6.35 | 41 | 1.95 | 9.9 | 0.374 | 16.1 |
| CCCCC[C@H]1CC=C2C(=O)C=C[C@@H]2CC=CCCCC(=O)O[C@@H](CCCCC)CC=C2C(=O)C=C[C@@H]2CC=CCCCC(=O)O[C@@H](CCCCC)CC=C2C(=O)C=C[C@@H]2CC=CCCCC(=O)O1 | 0.251 | > 8.75 | 0.773 | > 8.75 | 0.15 | 0.306 | 0.249 | 0.697 | 0.3 | 1.93 | 4.24 | > 8.75 | 0.192 | 0.532 | 1.08 | > 8.75 | 0.432 | 5.13 | 0.456 | 2.2 |
| O=C(O)C1CCN(Cc2oc(CO)cc(=O)c2O)C1 (stereo not given) |  | > 100 |  | > 100 |  | > 100 |  | > 100 |  | > 100 |  | > 100 |  | > 100 |  | > 100 |  | > 100 |  | > 100 |
| Cc1cn(CCC(N)C(=O)O)c(=O)[nH]c1=O (stereo not given) |  | > 100 |  | > 100 |  | > 100 |  | > 100 |  | > 100 |  | > 100 |  | > 100 |  | > 100 |  | > 100 |  | > 100 |
| COc1cc(-c2nn(-c3cccc(NC(=O)NCCNS(=O)(=O)c4ccc(Cl)cc4)c3)cc2-c2ccncc2)ccc1Cl | 0.419 | > 100 | 0.351 | 5.14 | 0.559 | 2.46 | 1.51 | 4.38 | 1.21 | 8.79 | 22.7 | > 100 | 0.371 | 1.55 | 2.82 | > 100 | 0.513 | 2.09 | 0.541 | 3.34 |
| O=C(Nc1ccc2ncnc(Nc3ccc(Oc4cccc(F)c4)c(Cl)c3)c2c1)c1ccc(CN2CCOCC2)cc1 | 2.95 | 20.7 | 1.96 | 7.04 | 2.24 | 5.33 | 2.68 | 9.03 | 2.09 | 5.89 | 2.33 | 7.16 | 2.16 | 7 | 4.5 | 23.4 | 2.66 | 10.3 | 2.36 | 7.1 |
| CN(C)C(=S)/N=c1\ssc(=S)n1Cc1cccs1 |  | > 60.2 |  | 5.17 |  | > 100 |  | > 100 |  | > 100 |  | 5.1 |  | 6.57 |  | > 100 |  | 21.8 |  | > 75.4 |
| CCn1c(-c2c(Cl)cc(O)cc2Cl)cc2c(Cl)cc(O)cc21 |  | > 100 |  | > 100 |  | 32.8 |  | 31 |  | 39 |  | > 100 |  | 97 |  | 65 |  | 19.8 |  | 26 |
| COc1ccc(C(C#N)=C2C=CC(=NO)C=C2)cc1 | 2.76 | > 100 | 2.9 | 20.3 | 1.91 | 4.5 | 12.6 | 35.3 | 12.8 | 26.3 | 3.38 | 13.3 | 4.31 | 13.4 | 19.5 | 34.3 | 4.8 | 17.1 | 10.5 | 30.6 |
| CCN(CC)CCC(=O)OC1C(C)=CC(C)C(=O)CC(C(C)CC2CCC(O)C(OC)C2)OC(=O)C2CCCCN2C(=O)C(=O)[C@@]2(O)OC(CCC2C)CC(OC)\C(C)=C/C=C/C=C/C(C)CC(C)C(=O)C1OC (stereo not given in full) |  | 13.8 |  | 13.7 |  | 19.2 |  | 26.7 |  | 26.4 |  | 25.8 |  | 23.5 |  | 25.6 |  | 18.5 |  | 27.1 |
